Results: patent US8247211B2, “Glycopeptide antibiotics” (American Cyanamid Company, priority 2001, dated 2012)

Columns and labels:
Assay in all cases: In vitro antibacterial evaluation: minimum inhibitory concentration (MIC), broth dilution method
Format in all cases: cell-based
Conditions in all cases: 18 hours at 35° C.
Enterococcus sp. = test system: Enterococcus sp.
Procedure, shortened: (§1)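 Values are minimum inhibitory concentrations, meaning the smallest antibiotic concentration that stops growth of the organism. They come from broth dilution in Muller-Hinton II […] per NCCLS guidance (M7-A2), using 5×10^5 CFU/mL and concentrations from 64 to 0.06 μg/mL.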

Escherichia coli = test system: Escherichia coli
Procedure, shortened: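 Broth dilution per NCCLS M7-A2 in Muller-Hinton II […], inoculum 5×10^5 CFU/mL, antibiotic tested over 64-0.06 μg/mL. MIC is taken as the lowest concentration that inhibits growth. Panel includes recent clinical isolates resistant to methicillin, penicillin and/or vancomycin.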

Staphylococcus sp. = test system: Staphylococcus sp.
Procedure, shortened: as §1

Streptococcus sp. = test system: Streptococcus sp.
Procedure, shortened: as §1

CCCCCNC(=O)OC1C(CO)OC(OC2C(CO)OC(Oc3ccc(CC4NC(=O)C(C(C)c5ccccc5)NC(=O)CNC(=O)C(CO)NC(=O)C(C(O)C5CNC(=N)N5C5OC(CO)C(O)C(O)C5O)NC(=O)C(C(O)C5CNC(=N)N5)NC4=O)cc3)C(O)C2O)C(O)C1O (stereo not drawn) [Example 251, α-O-[(Pentylamino)carbonyl]-cyclo[glycyl-β-methylphenylalanyl-O-(4-O-hexopyranosylhexopyranosyl)tyrosyl-3-(2-iminoimidazolidin-4-yl)seryl-3-(3-hexopyranosyl-2-iminoimidazolidin-4-yl)serylseryl]]
64 µg/mL: MIC Enterococcus faecium (GC 4557) (Enterococcus sp.) | MIC Coagulase Negative Staphylococcus (ID-3941) (Staphylococcus sp.) | MIC Streptococcus pneumoniae (GC 4565) (Streptococcus sp.) | MIC Streptococcus pyogenes (ID-3187) (Streptococcus sp.)
>64 µg/mL: MIC Enterococcus avium (GC 4558) (Enterococcus sp.) | MIC Enterococcus faecalis (ATCC 29212) (Enterococcus sp.) | MIC Enterococcus faecalis (GC 2242) (Enterococcus sp.) | MIC Enterococcus faecalis (GC 4552) (Enterococcus sp.) | MIC Enterococcus faecalis (GC 4553) (Enterococcus sp.) | MIC Enterococcus faecalis (GC 4554) (Enterococcus sp.) | MIC Enterococcus faecium (GC 2243) (Enterococcus sp.) | MIC Enterococcus faecium (GC 4556) (Enterococcus sp.) | MIC Escherichia coli (ATCC 25922) (Escherichia coli) | MIC Escherichia coli (GC 4559) (Escherichia coli) | MIC Coagulase Negative Staphylococcus (GC 4547) (Staphylococcus sp.) | MIC Coagulase Negative Staphylococcus (GC 4548) (Staphylococcus sp.) | MIC Coagulase Negative Staphylococcus (GC 4549) (Staphylococcus sp.) | MIC Coagulase Negative Staphylococcus (GC 4551) (Staphylococcus sp.) | MIC Staphylococcus aureus (ATCC 29213) (Staphylococcus sp.) | MIC Staphylococcus aureus (GC 1131) (Staphylococcus sp.) | MIC Staphylococcus aureus (GC 4541) (Staphylococcus sp.) | MIC Staphylococcus aureus (GC 4542) (Staphylococcus sp.) | MIC Staphylococcus aureus (GC 4544) (Staphylococcus sp.) | MIC Staphylococcus aureus (GC 4545) (Staphylococcus sp.) | MIC Staphylococcus aureus-SMITH (GC 4543) (Staphylococcus sp.) | MIC Staphylococcus haemolyticus (GC 4546) (Staphylococcus sp.) | MIC Streptococcus agalactiae (GC 4564) (Streptococcus sp.)
4 µg/mL: MIC Escherichia coli (GC 4560) (Escherichia coli)

CCCCCNC(=O)OCC1OC(OC2C(CO)OC(Oc3ccc(CC4NC(=O)C(C(C)c5ccccc5)NC(=O)CNC(=O)C(CO)NC(=O)C(C(O)C5CNC(=N)N5C5OC(CO)C(O)C(O)C5O)NC(=O)C(C(O)C5CNC(=N)N5)NC4=O)cc3)C(O)C2O)C(O)C(O)C1O (stereo not drawn) [Example 251b, γ-O-[(Pentylamino)carbonyl]-cyclo[glycyl-β-methylphenylalanyl-O-(4-O-hexopyranosylhexopyranosyl)tyrosyl-3-(2-iminoimidazolidin-4-yl)seryl-3-(3-hexopyranosyl-2-iminoimidazolidin-4-yl)serylseryl]]
8 µg/mL: MIC Coagulase Negative Staphylococcus (GC 4547) (Staphylococcus sp.) | MIC Coagulase Negative Staphylococcus (GC 4548) (Staphylococcus sp.) | MIC Staphylococcus aureus (GC 1131) (Staphylococcus sp.) | MIC Staphylococcus aureus (GC 4541) (Staphylococcus sp.) | MIC Staphylococcus aureus (GC 4542) (Staphylococcus sp.) | MIC Staphylococcus aureus (GC 4545) (Staphylococcus sp.) | MIC Staphylococcus aureus-SMITH (GC 4543) (Staphylococcus sp.) | MIC Staphylococcus haemolyticus (GC 4546) (Staphylococcus sp.)
2 µg/mL: MIC Escherichia coli (GC 4560) (Escherichia coli) | MIC Streptococcus pyogenes (ID-3187) (Streptococcus sp.)
>64 µg/mL: MIC Escherichia coli (ATCC 25922) (Escherichia coli) | MIC Escherichia coli (GC 4559) (Escherichia coli)
64 µg/mL: MIC Enterococcus avium (GC 4558) (Enterococcus sp.) | MIC Enterococcus faecalis (ATCC 29212) (Enterococcus sp.) | MIC Enterococcus faecalis (GC 4552) (Enterococcus sp.) | MIC Enterococcus faecalis (GC 4553) (Enterococcus sp.) | MIC Enterococcus faecalis (GC 4554) (Enterococcus sp.) | MIC Enterococcus faecium (GC 2243) (Enterococcus sp.) | MIC Enterococcus faecium (GC 4556) (Enterococcus sp.)
4 µg/mL: MIC Enterococcus faecium (GC 4557) (Enterococcus sp.) | MIC Coagulase Negative Staphylococcus (GC 4549) (Staphylococcus sp.) | MIC Coagulase Negative Staphylococcus (ID-3941) (Staphylococcus sp.) | MIC Streptococcus agalactiae (GC 4564) (Streptococcus sp.)
1 µg/mL: MIC Streptococcus pneumoniae (GC 4565) (Streptococcus sp.)
32 µg/mL: MIC Enterococcus faecalis (GC 2242) (Enterococcus sp.)
16 µg/mL: MIC Coagulase Negative Staphylococcus (GC 4551) (Staphylococcus sp.) | MIC Staphylococcus aureus (ATCC 29213) (Staphylococcus sp.) | MIC Staphylococcus aureus (GC 4544) (Staphylococcus sp.)
